Organism: Rattus norvegicus
Assay: DrugMatrix - Regimen: Daily Repeat
Assay type: toxicity, organism-based, Sprague-Dawley
Parameters: regimen Daily Repeat, gender Male, age 6-8 weeks
Details: in vivo, po, route oral GAVAGE, vehicle 100 % WATER; for ABSOLUTE BASOPHIL / ABSOLUTE EOSINOPHIL / ABSOLUTE LYMPHOCYTE / ABSOLUTE MONOCYTE / ABSOLUTE SEGMENTED NEUTROPHIL / BASOPHIL / EOSINOPHIL / ERYTHROCYTE COUNT / HEMATOCRIT / HEMOGLOBIN / LEUKOCYTE COUNT / LYMPHOCYTE / MEAN CORPUSCULAR HEMOGLOBIN / MEAN CORPUSCULAR HEMOGLOBIN CONCENTRATION / MEAN CORPUSCULAR VOLUME / MONOCYTE / NEUTROPHIL / NUCLEATED RED BLOOD CELLS / PLATELET COUNT: tissue Blood; for ALANINE AMINOTRANSFERASE / ALBUMIN / ALKALINE PHOSPHATASE / ASPARTATE AMINOTRANSFERASE / BLOOD UREA NITROGEN / CARBON DIOXIDE / CHLORIDE / CHOLESTEROL / CREATINE PHOSPHOKINASE / CREATININE / GLUCOSE / LACTATE DEHYDROGENASE / LIPASE / PHOSPHORUS / POTASSIUM / SODIUM / TOTAL BILIRUBIN / TOTAL PROTEIN / URIC ACID: tissue Plasma
[1] = 0 mg/kg, 72 h, dose level Control, time 3 day
[2] = 0 mg/kg, 120 h, dose level Control, time 5 day
[3] = 58 mg/kg, 72 h, dose level Low, time 3 day

NC12CC3CC(CC(C3)C1)C2 [AMANTADINE]
ABSOLUTE BASOPHIL [1]: 0 CELLS/uL | ABSOLUTE EOSINOPHIL [1]: 58.83 CELLS/uL | ABSOLUTE LYMPHOCYTE [1]: 11823.5 CELLS/uL | ABSOLUTE MONOCYTE [1]: 169 CELLS/uL | ABSOLUTE SEGMENTED NEUTROPHIL [1]: 815.33 CELLS/uL | BASOPHIL [1]: 0% | EOSINOPHIL [1]: 0.5% | ERYTHROCYTE COUNT [1]: 5.52 x10E6/uL | HEMATOCRIT [1]: 35.77% | HEMOGLOBIN [1]: 14.28 G/DL | LEUKOCYTE COUNT [1]: 12.87 x10E3/uL | LYMPHOCYTE [1]: 91.67% | MEAN CORPUSCULAR HEMOGLOBIN [1]: 25.92 pg | MEAN CORPUSCULAR HEMOGLOBIN CONCENTRATION [1]: 39.95 G/DL | MEAN CORPUSCULAR VOLUME [1]: 64.85 fL | MONOCYTE [1]: 1.33% | NEUTROPHIL [1]: 6.5% | NUCLEATED RED BLOOD CELLS [1]: 0 /100WBC | PLATELET COUNT [1]: 1246.17 x10E3/uL | ALANINE AMINOTRANSFERASE [1]: 66 u/L | ALBUMIN [1]: 4.25 G/DL | ALKALINE PHOSPHATASE [1]: 416 u/L | ASPARTATE AMINOTRANSFERASE [1]: 106.17 u/L | BLOOD UREA NITROGEN [1]: 12.67 mg/dL | CARBON DIOXIDE [1]: 31.83 mmol/L | CHLORIDE [1]: 102.5 MEQ/L | CHOLESTEROL [1]: 69 mg/dL | CREATINE PHOSPHOKINASE [1]: 601.83 u/L | CREATININE [1]: 0.18 mg/dL | GLUCOSE [1]: 154.5 mg/dL | LACTATE DEHYDROGENASE [1]: 301.83 u/L | LIPASE [1]: 11.17 u/L | PHOSPHORUS [1]: 12.08 mg/dL | POTASSIUM [1]: 6.12 MEQ/L | SODIUM [1]: 145.2 MEQ/L | TOTAL BILIRUBIN [1]: 0.17 mg/dL | TOTAL PROTEIN [1]: 6.1 G/DL | URIC ACID [1]: 1.57 mg/dL | ABSOLUTE BASOPHIL [2]: 0 CELLS/uL | ABSOLUTE EOSINOPHIL [2]: 19.33 CELLS/uL | ABSOLUTE LYMPHOCYTE [2]: 12577.83 CELLS/uL | ABSOLUTE MONOCYTE [2]: 106.33 CELLS/uL | ABSOLUTE SEGMENTED NEUTROPHIL [2]: 896.5 CELLS/uL | BASOPHIL [2]: 0% | EOSINOPHIL [2]: 0.17% | ERYTHROCYTE COUNT [2]: 5.84 x10E6/uL | HEMATOCRIT [2]: 36.88% | HEMOGLOBIN [2]: 14.48 G/DL | LEUKOCYTE COUNT [2]: 13.6 x10E3/uL | LYMPHOCYTE [2]: 92.17% | MEAN CORPUSCULAR HEMOGLOBIN [2]: 24.85 pg | MEAN CORPUSCULAR HEMOGLOBIN CONCENTRATION [2]: 39.3 G/DL | MEAN CORPUSCULAR VOLUME [2]: 63.23 fL | MONOCYTE [2]: 0.83% | NEUTROPHIL [2]: 6.83% | NUCLEATED RED BLOOD CELLS [2]: 0 /100WBC | PLATELET COUNT [2]: 1223.5 x10E3/uL | ALANINE AMINOTRANSFERASE [2]: 55.33 u/L | ALBUMIN [2]: 4.08 G/DL | ALKALINE PHOSPHATASE [2]: 355.5 u/L | ASPARTATE AMINOTRANSFERASE [2]: 87.67 u/L | BLOOD UREA NITROGEN [2]: 15.33 mg/dL | CARBON DIOXIDE [2]: 33.83 mmol/L | CHLORIDE [2]: 99.67 MEQ/L | CHOLESTEROL [2]: 72.17 mg/dL | CREATINE PHOSPHOKINASE [2]: 268.33 u/L | CREATININE [2]: 0.15 mg/dL | GLUCOSE [2]: 152.5 mg/dL | LACTATE DEHYDROGENASE [2]: 212.67 u/L | LIPASE [2]: 10.83 u/L | PHOSPHORUS [2]: 11.65 mg/dL | POTASSIUM [2]: 6.73 MEQ/L | SODIUM [2]: 142.43 MEQ/L | TOTAL BILIRUBIN [2]: 0.23 mg/dL | TOTAL PROTEIN [2]: 6.07 G/DL | URIC ACID [2]: 1.7 mg/dL | ABSOLUTE BASOPHIL [3]: 0 CELLS/uL | ABSOLUTE EOSINOPHIL [3]: 0 CELLS/uL | ABSOLUTE LYMPHOCYTE [3]: 14460 CELLS/uL | ABSOLUTE MONOCYTE [3]: 391.33 CELLS/uL | ABSOLUTE SEGMENTED NEUTROPHIL [3]: 1148.67 CELLS/uL | BASOPHIL [3]: 0% | EOSINOPHIL [3]: 0% | ERYTHROCYTE COUNT [3]: 5.53 x10E6/uL | HEMATOCRIT [3]: 35.03% | HEMOGLOBIN [3]: 14 G/DL | LEUKOCYTE COUNT [3]: 16 x10E3/uL | LYMPHOCYTE [3]: 90% | MEAN CORPUSCULAR HEMOGLOBIN [3]: 25.33 pg | MEAN CORPUSCULAR HEMOGLOBIN CONCENTRATION [3]: 40 G/DL | MEAN CORPUSCULAR VOLUME [3]: 63.37 fL | MONOCYTE [3]: 2.33% | NEUTROPHIL [3]: 7.67% | NUCLEATED RED BLOOD CELLS [3]: 0 /100WBC | PLATELET COUNT [3]: 1206.67 x10E3/uL | ALANINE AMINOTRANSFERASE [3]: 47.67 u/L | ALBUMIN [3]: 4.17 G/DL | ALKALINE PHOSPHATASE [3]: 377.33 u/L | ASPARTATE AMINOTRANSFERASE [3]: 90 u/L | BLOOD UREA NITROGEN [3]: 13.33 mg/dL | CARBON DIOXIDE [3]: 31.67 mmol/L | CHLORIDE [3]: 102.33 MEQ/L | CHOLESTEROL [3]: 67 mg/dL | CREATINE PHOSPHOKINASE [3]: 444.67 u/L | CREATININE [3]: 0.13 mg/dL | GLUCOSE [3]: 137.33 mg/dL | LACTATE DEHYDROGENASE [3]: 367.33 u/L | LIPASE [3]: 11.67 u/L | PHOSPHORUS [3]: 12.1 mg/dL | POTASSIUM [3]: 6.36 MEQ/L | SODIUM [3]: 145.43 MEQ/L | TOTAL BILIRUBIN [3]: 0.17 mg/dL | TOTAL PROTEIN [3]: 5.9 G/DL | URIC ACID [3]: 1.6 mg/dL
